Like-named read-outs stand apart in the source and are kept apart here.
How the values were obtained:
[1] = molecular target: HCV NS3/4A protease complex, BMS strain (UniProt P27958, C1454S/C1711G, species not given/STRAIN_BMS); assay: Recombinant HCV NS3/4A protease complex FRET peptide assay (BMS strain); assay type: biochemical, HCV genotype 1a
Summary of the method: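 Percent inhibition taken from the linear-range fluorescence slope relative to uninhibited control, read kinetically for about 15 min at 25° C. Enzyme (2-3 nM, BMS NS3/4A complex, lysine-tailed, Ni-NTA purified) met compound for 1 min before 2 μM FRET depsipeptide substrate started cleavage.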

[2] = tested on: HCV replicon in Huh7 cells; assay: HCV replicon cell-based assay; design: species or system HCV strain 1B; details: HCV replicon, Huh7 cells, read-out: EC50 range
[3] = NS3/4A BMS strain; read-out: IC50 range
[4] = read-out: IC50 range; NS3/4A BMS strain

C=CC1C[C@]1(NC(=O)[C@@H]1C[C@@H](Oc2cc(C(F)(F)F)nc3ccc(F)cc23)CN1C(=O)[C@@H](NC(=O)OC(C)(C)C)C(C)(C)C)C(=O)NS(=O)(=O)C1CC1 (stereo partly drawn) [Compound 238, BOCNH-P3(L-t-BuGly)-P2[(4R)-(2-trifluoro-6-fluoroquinoline-4-oxo)-S-proline]-P1(1R,2S VinylAcca)-CONHSO2Cyclopropane]
IC50 [1, 3]: < 100 nM
EC50 ([2]; Hepatitis C virus, Huh-7): 100 to 1000 nM

C=CC1C[C@]1(NC(=O)[C@@H]1C[C@@H](COc2cncc(-c3ccsc3)c2)CN1C(=O)[C@@H](NC(=O)OC)C(C)(C)C)C(=O)NS(=O)(=O)C1CC1 (some centres unmarked) [Compound 347]
IC50 [1, 4]: 100 to 1000 nM
EC50 ([2]; Hepatitis C virus, Huh-7): 10000 to 100000 nM

CC[C@@H]1C[C@]1(NC(=O)[C@@H]1C[C@@H](Oc2nccc3c(C(F)(F)F)cccc23)CN1C(=O)[C@@H](NC(=O)OC(C)(C)C)C(C)(C)C)C(=O)NS(=O)(=O)C1CC1 [Compound 295]
IC50 [1, 3]: 100 to 1000 nM
EC50 ([2]; Hepatitis C virus, Huh-7): 1000 to 10000 nM

C=C[C@@H]1C[C@]1(NC(=O)[C@@H]1C[C@@H](Oc2cc(-c3ccc(OC)cc3)nc3c(C)noc23)CN1C(=O)[C@@H](NC(=O)OC(C)(C)C)C(C)(C)C)C(=O)NS(=O)(=O)C1CC1 [Compound 3]
IC50 [1, 3]: < 100 nM
EC50 ([2]; Hepatitis C virus, Huh-7): < 100 nM

C=C[C@@H]1C[C@]1(NC(=O)[C@@H]1C[C@@H](Oc2cc(C(F)(F)F)nc3ccc(C)cc23)CN1C(=O)[C@@H](NC(=O)OC(C)(C)C)C(C)(C)C)C(=O)NS(=O)(=O)C1CC1 [Compound 410]
IC50 [1, 3]: < 100 nM
EC50 ([2]; Hepatitis C virus, Huh-7): < 100 nM

C=C[C@@H]1C[C@]1(NC(=O)[C@@H]1C[C@@H](Oc2nccc3cc(OC)ccc23)CN1C(=O)C(NC(=O)OC(C)(C)C)C(C)c1ccccc1)C(=O)NS(=O)(=O)C1CC1 (single isomer, unassigned) [Compound 136]
IC50 [1, 3]: < 100 nM
EC50 [2]: 100 to 1000 nM

C=CC1C[C@]1(NC(=O)[C@@H]1C[C@@H](Oc2noc3ccccc23)CN1C(=O)[C@@H](NC(=O)OC(C)(C)C)C(C)(C)C)C(=O)NS(=O)(=O)C1CC1 (some centres unmarked) [Compound 334]
IC50 [1, 3]: 100 to 1000 nM
EC50 ([2]; Hepatitis C virus, Huh-7): 100 to 1000 nM

C=C[C@@H]1C[C@]1(NC(=O)[C@@H]1C[C@@H](Oc2nccc3ccccc23)CN1C(=O)[C@@H](NC(=O)CCOC)C(C)(C)C)C(=O)NS(=O)(=O)C1CC1 [Compound 132]
IC50 [1, 3]: < 100 nM
EC50 ([2]; Hepatitis C virus, Huh-7): 1000 to 10000 nM

C=CC1C[C@]1(NC(=O)[C@@H]1C[C@@H](Oc2nc(-c3nccs3)c(OC)c3ccccc23)CN1C(=O)[C@@H](NC(=O)OC(C)(C)C)C(C)(C)C)C(=O)NS(=O)(=O)C1CC1 (stereo partly drawn) [Compound 232, BOCNH-P3(L-t-BuGly)-P2[(4R)-(4-methoxy-3-thiazol-2-yl -isoquinolin-1-oxo)-S-proline]-P1(1R,2S VinylAcca)-CONHSO2Cyclopropane]
IC50 [1, 3]: < 100 nM
EC50 ([2]; Hepatitis C virus, Huh-7): < 100 nM

C=CC1C[C@]1(NC(=O)[C@@H]1C[C@@H](Oc2nc(-c3csc(N(C)C)n3)cc3cc(OC)ccc23)CN1C(=O)[C@@H](NC(=O)OC(C)(C)C)C(C)(C)C)C(=O)NS(=O)(=O)C1CC1 (some centres unmarked) [Compound 322]
IC50 [1, 3]: < 100 nM
EC50 ([2]; Hepatitis C virus, Huh-7): < 100 nM

C=C[C@@H]1C[C@]1(NC(=O)[C@@H]1CC(Oc2nccc3cc(OC)ccc23)CN1C(=O)[C@@H](NC(=O)NC(C)(C)c1ccccc1)C(C)(C)C)C(=O)NS(=O)(=O)C1CC1 (some centres unmarked) [Compound 83]
IC50 [1, 3]: < 100 nM
EC50 ([2]; Hepatitis C virus, Huh-7): 100 to 1000 nM

C=C[C@@H]1C[C@]1(NC(=O)[C@@H]1CC(Oc2nccc3cc(OC)ccc23)CN1C(=O)[C@@H](NC(=O)C1CCCC1)C(C)(C)C)C(=O)NS(=O)(=O)C1CC1 (some centres unmarked) [Compound 56]
IC50 [1, 3]: < 100 nM
EC50 ([2]; Hepatitis C virus, Huh-7): < 100 nM

C=C[C@@H]1C[C@]1(NC(=O)[C@@H]1C[C@@H](Oc2nccc3c(OC)c(OC)ccc23)CN1C(=O)[C@@H](NC(=O)OC(C)(C)C)C(C)(C)C)C(=O)NS(=O)(=O)C1CC1 [Compound 272]
IC50 [1, 3]: < 100 nM
EC50 ([2]; Hepatitis C virus, Huh-7): < 100 nM

C=C[C@@H]1C[C@]1(NC(=O)[C@@H]1C[C@@H](Oc2nccc3cc(OC)ccc23)CN1C(=O)[C@@H](NC(=O)N[C@@H](C)C(=O)OC)C(C)(C)C)C(=O)NS(=O)(=O)C1CC1 [Compound 145]
IC50 [1, 3]: < 100 nM
EC50 ([2]; Hepatitis C virus, Huh-7): 100 to 1000 nM

C=C[C@@H]1CC1(NC(=O)[C@@H]1CC(Oc2nccc3cc(OC)ccc23)CN1C(=O)[C@@H](NC(=O)CO[C@@H]1C[C@H](C)CC[C@H]1C(C)C)C(C)(C)C)C(=O)NS(=O)(=O)C1CC1 (some centres unmarked) [Compound 61]
IC50 [1, 3]: 100 to 1000 nM
EC50 ([2]; Hepatitis C virus, Huh-7): 1000 to 10000 nM

C=CC1C[C@]1(NC(=O)[C@@H]1C[C@@H](Oc2nccc3cc(F)ccc23)CN1C(=O)[C@@H](NC(=O)OC(C)(C)C)C(C)(C)C)C(=O)NS(=O)(=O)C1CC1 (stereo partly drawn) [Compound 187, BOCNH-P3(L-tert-BuGly)-P2[(4R)-(6-fluoro isoquinolin-1-oxo)-S -proline]-P1(1R,2S Vinyl Acca)-CONHSO2-Cyclopropane]
IC50 [1, 3]: < 100 nM
EC50 ([2]; Hepatitis C virus, Huh-7): 100 to 1000 nM

C=C[C@@H]1C[C@]1(NC(=O)[C@@H]1C[C@@H](Oc2cc(-c3ccccc3)nc3c(C)noc23)CN1C(=O)[C@@H](NC(=O)OC(C)(C)C)C(C)(C)C)C(=O)NS(=O)(=O)C1CC1 [Compound 1]
IC50 [1, 3]: < 100 nM
EC50 ([2]; Hepatitis C virus, Huh-7): < 100 nM

C=C[C@@H]1C[C@]1(NC(=O)[C@@H]1CC(Oc2nc(-c3ccccc3)cc3ccccc23)CN1C(=O)[C@@H](NC(=O)OC(C)(C)C)[C@H](C)O)C(=O)NS(=O)(=O)C1CC1 (some centres unmarked) [Compound 107]
IC50 [1, 4]: < 100 nM
EC50 ([2]; Hepatitis C virus, Huh-7): 100 to 1000 nM

C=CC1CC1(NC(=O)[C@@H]1C[C@@H](Oc2cc(C(F)(F)F)nc3nc(C)ccc23)CN1C(=O)[C@@H](NC(=O)OC(C)(C)C)C(C)(C)C)C(=O)NS(=O)(=O)C1CC1 (some centres unmarked) [Compound 8]
IC50 [1, 3]: 100 to 1000 nM
EC50 ([2]; Hepatitis C virus, Huh-7): 1000 to 10000 nM

C=C[C@@H]1C[C@]1(NC(=O)[C@@H]1C[C@@H](Oc2cccc(-c3ccccc3)n2)CN1C(=O)[C@@H](NC(=O)OC(C)(C)C)C(C)(C)C)C(=O)NS(=O)(=O)C1CC1 [Compound 436]
IC50 [1, 3]: < 100 nM
EC50 ([2]; Hepatitis C virus, Huh-7): 100 to 1000 nM

C=CC1C[C@]1(NC(=O)[C@@H]1C[C@@H](COc2cccc(Br)c2)CN1C(=O)[C@@H](NC(=O)OC)C(C)(C)C)C(=O)NS(=O)(=O)C1CC1 (some centres unmarked) [Compound 345]
IC50 [1, 3]: 1000 to 10000 nM
EC50 ([2]; Hepatitis C virus, Huh-7): 10000 to 100000 nM

C=C[C@@H]1C[C@]1(NC(=O)[C@@H]1CC(Oc2nc(-c3ccccc3)cc3ccccc23)CN1C(=O)[C@@H](NC(=O)OC(C)(C)C)[C@H](C)OC)C(=O)NS(=O)(=O)C1CC1 (some centres unmarked) [Compound 108]
IC50 [1, 3]: < 100 nM
EC50 ([2]; Hepatitis C virus, Huh-7): < 100 nM

C=C[C@@H]1C[C@]1(NC(=O)[C@@H]1C[C@@H](Oc2nccc3cc(OC)ccc23)CN1C(=O)[C@@H](NC(=O)OC1(C)CCCC1)C(C)(C)C)C(=O)NS(=O)(=O)C1CCC1 [Compound 384]
IC50 [1, 3]: < 100 nM
EC50 ([2]; Hepatitis C virus, Huh-7): < 100 nM

C=CC1C[C@]1(NC(=O)[C@@H]1C[C@@H](Oc2nnc(-n3ccnc3)c3ccccc23)CN1C(=O)[C@@H](NC(=O)OC(C)(C)C)C(C)(C)C)C(=O)NS(=O)(=O)C1CC1 (stereo partly drawn) [Compound 196, BOCNH-P3(L-tert-BuGly)-P2[(4R)-(4-(imidazo-1-yl)phthalazine-1-oxo)-S-proline]-P1(1R,2S Vinyl Acca)-CONHSO2-Cyclopropane]
IC50 [1, 3]: < 100 nM
EC50 ([2]; Hepatitis C virus, Huh-7): 1000 to 10000 nM

C=C[C@@H]1C[C@]1(NC(=O)[C@@H]1C[C@@H](Oc2nccc3c4c(ccc23)OCCO4)CN1C(=O)[C@@H](NC(=O)OC(C)(C)C)C(C)(C)C)C(=O)NS(=O)(=O)C1CC1 [Compound 286]
IC50 [1, 3]: < 100 nM
EC50 ([2]; Hepatitis C virus, Huh-7): < 100 nM

C=CC1CC1(NC(=O)C1CC(Oc2nc(-c3ccccc3)nc3ccc(OC)cc23)CN1C(=O)[C@@H](NC(=O)OC(C)(C)C)C(C)(C)C)C(=O)NS(=O)(=O)C(C)C (mixture of isomers) [Compound 45]
IC50 [1, 3]: 100 to 1000 nM
EC50 ([2]; Hepatitis C virus, Huh-7): 1000 to 10000 nM

C=CC1CC1(NC(=O)[C@@H]1C[C@@H](OCc2ccc3ccccc3c2)CN1C(=O)[C@@H](NC(=O)OC(C)(C)C)C(C)(C)C)C(=O)NS(C)(=O)=O (some centres unmarked) [Compound 454]
IC50 [1, 3]: 100 to 1000 nM
EC50 ([2]; Hepatitis C virus, Huh-7): 1000 to 10000 nM

C=C[C@@H]1CC1(NC(=O)[C@@H]1CC(Oc2nccc3cc(OC)ccc23)CN1C(=O)[C@@H](NC(=O)OC1(C)CCCC1)C(C)(C)C)C(=O)NS(=O)(=O)C1CC1 (some centres unmarked) [Compound 69]
IC50 [1, 4]: < 100 nM
EC50 ([2]; Hepatitis C virus, Huh-7): < 100 nM

C=C[C@@H]1C[C@]1(NC(=O)[C@@H]1C[C@@H](Oc2ccc3c(OC)cnc(Cl)c3c2)CN1C(=O)[C@@H](NC(=O)OC(C)(C)C)C(C)(C)C)C(=O)NS(=O)(=O)C1CC1 [Compound 283]
IC50 [1, 3]: < 100 nM
EC50 ([2]; Hepatitis C virus, Huh-7): 100 to 1000 nM

C=CC1C[C@]1(NC(=O)[C@@H]1C[C@@H](Oc2nccc3cc(C)ccc23)CN1C(=O)[C@@H](NC(=O)OC(C)(C)C)C(C)(C)C)C(=O)NS(=O)(=O)C1CC1 (stereo partly drawn) [Compound 210, BOCNH-P3(L-tert-BuGly)-P2[(4R)-(6-methyl isoquinolin-1-oxo)-S -proline]-P1(1R,2S Vinyl Acca)-CONHSO2-Cyclopropane]
IC50 [1, 3]: < 100 nM
EC50 ([2]; Hepatitis C virus, Huh-7): < 100 nM

C=C[C@@H]1C[C@]1(NC(=O)[C@@H]1C[C@@H](Oc2nc(-c3ccoc3)cc3ccccc23)CN1C(=O)[C@@H](NC(=O)OC(C)(C)C)C(C)(C)C)C(=O)NS(=O)(=O)C1CC1 [Compound 30]
IC50 [1, 3]: < 100 nM
EC50 ([2]; Hepatitis C virus, Huh-7): < 100 nM

C=CC1C[C@]1(NC(=O)[C@@H]1C[C@@H](Oc2nccc3cc(OC(C)(C)C)ccc23)CN1C(=O)[C@@H](NC(=O)OC(C)(C)C)C(C)(C)C)C(=O)NS(=O)(=O)C1CC1 (stereo partly drawn) [Compound 193, BOCNH-P3(L-tert-BuGly)-P2[(4R)-(6-tert-butoxy isoquinolin-1-oxo)-S-proline]-P1(1R,2S Vinyl Acca)-CONHSO2-Cyclopropane]
IC50 [1, 3]: < 100 nM
EC50 ([2]; Hepatitis C virus, Huh-7): 100 to 1000 nM

C=C[C@@H]1C[C@]1(NC(=O)[C@@H]1C[C@@H](Oc2ccnc(-c3nccs3)c2)CN1C(=O)[C@@H](NC(=O)OC1CCCC1)C(C)(C)C)C(=O)NS(=O)(=O)C1CC1 [Compound 431]
IC50 [1, 3]: < 100 nM
EC50 ([2]; Hepatitis C virus, Huh-7): 100 to 1000 nM

C=C[C@@H]1C[C@]1(NC(=O)[C@@H]1C[C@@H](Oc2nccc3cc(OC)ccc23)CN1C(=O)[C@@H](NC(=O)OC(C)(C)CC)[C@H](C)OC)C(=O)NS(=O)(=O)C1CC1 [Compound 105]
IC50 [1, 4]: < 100 nM
EC50 ([2]; Hepatitis C virus, Huh-7): < 100 nM

Source: patent publication US7915291B2, “Hepatitis C virus inhibitors” (Bristol-Myers Squibb Company, priority 2002, dated 2011)
